Assay results: paper PMC8575619, “Cytotoxic and Antifungal Amides Derived from Ferulic Acid: Molecular Docking and Mechanism of Action” (BioMed Research International, 2021)
Converted amounts (≈) assume the structure as drawn. “And” between values parts separate entries of the source, which are not always exact repeats. Equal entries are not always repeated. Where two headings read alike, the source gives them in different places.

What was measured:
[1] = test system: C. albicans CBS 562; experiment: Sorbitol assay (cell wall mechanism), microdilution; assay type: cell-based, Candida albicans; conditions: for MIC: Candida albicans
Experimental: (1) Sorbitol Assay. The microdilution technique was performed in the presence of sorbitol (D-sorbitol, anhydrous) (INLAB laboratory), to determine the mode of action of the compounds on the cell wall of C. albicans CBS 562. For this test, the inoculum was prepared with sorbitol to a final concentration of 0.8 M. The plates were incubated at 35 ± 2°C, and readings were taken 24 h and 48 h after incubation. Caspofungin was used as positive control at an initial concentration of 5 mg/mL [68–70].

[2] = test system: MRC5; experiment: Cytotoxicity assay, alamar blue test (healthy cell line); assay type: cell-based, human; conditions: value (95% confidence interval)
Experimental: (§1) HepG2 cells (human hepatocellular carcinoma), HCT116 (human colon carcinoma), HL-60 (human promyelocytic leukemia), and MRC5 (human lung fibroblast) obtained from the ATCC (Manassas, VA, USA) were used. Cells were cultured in cell culture bottles (75 cm 3, 250 mL volume), and media used were RPMI 1640 and supplemented with 10% fetal bovine serum. Cells were maintained in incubators with 5% CO2 atmosphere at 37°C. Cellular growth was monitored daily with the use of an inversion microscope. The medium was changed whenever cell growth reached the necessary confluence for nutrient renewal. For the maintenance of adhered cells, trypsin (0.25%) was used for the cells to detach from the walls of the bottles.
(§2) To assess the cytotoxicity of the substances, the alamar blue test was performed after 72 h of exposure with the test substances. Alamar blue, known as resazurin [62], is a fluorescent/colorimetric indicator with redox properties. The reduction in alamar blue reflects cell proliferation. This was initially used to indicate cell growth and/or viability in monitoring lymphocyte proliferation and currently has several applications. Initially, cells were plated in 96-well plates (100 μL/well of a solution of 0.3 × 10^6 cells/mL for cells in suspension and 0.7 × 10^5 cells/mL for adhered cells). After 24 h of incubation, the test substances dissolved in DMSO were added to each well and incubated for 72 h. Doxorubicin was used as a positive control. The negative control received the same amount of DMSO. Four hours before the end of the incubation period, 20 μL of the stock solution (0.312 mg/mL) of alamar blue (resazurin) was added to each well. Absorbances were measured at wavelengths of 570 nm (reduced) and 600 nm (oxidized) using a plate reader.

[3] = test system: HepG2 cells; experiment: Cytotoxicity assay, alamar blue test; assay type: cell-based, human; conditions: value (95% confidence interval)
Experimental: as §1, §2

[4] = test system: HL-60; experiment: Cytotoxicity assay, alamar blue test; assay type: cell-based, human; conditions: value (95% confidence interval); for IC50: read-out: IC50 HL60
Experimental: as §1, §2

[5] = test system: HCT116; experiment: Cytotoxicity assay, alamar blue test; assay type: cell-based, human; conditions: value (95% confidence interval)
Experimental: as §1, §2

[6] = test system: Candida tropicalis CBS 94; experiment: Minimum fungicide concentration (MFC); assay type: cell-based; conditions: ≥ 4 fungistatic or <4 fungicide
Experimental: (§3) Antifungal activity evaluations were performed using references strains of Candida spp., obtained from the Centraalbureau voor Schimmelcultures (CBS, Ultrecht, Netherlands): Candida albicans CBS 562, Candida tropicalis CBS 94, and Candida krusei CBS 573. Nystatin, Tween 80%, DMSO, caspofungin diacetate, and ergosterol were obtained from Sigma-Aldrich® (St. Louis, MO, EUA) and sorbitol (D-sorbitol anhydrous) from INLAB® (São Paulo, Brazil). All assays were performed in triplicate in three independent experiments. The culture medium used for maintenance of the microorganisms was Agar Sabouraud Dextrose (ASD). Inoculants were adjusted to a final concentration of 2.5 × 10^3 CFU/mL (Clinical and Laboratory Standards Institute, 2002). […]
(§4) The minimum fungicide concentration (MFC) of the compounds was obtained after the interpretation of the MIC. Three (3) aliquots of 30 μL of supernatant were removed from the wells (where complete inhibition of fungal growth was analyzed) and placed in Petri dishes containing 15 mL of agar Sabouraud dextrose. The plates were incubated at 35 ± 2°C for 24 h for visual counting of colony forming units. To determine whether the compounds had fungistatic (MFC/MIC ≥ 4) or fungicidal (MFC/MIC < 4) activity, the MFC/MIC ratio was calculated.

[7] = test system: Candida krusei CBS 573; experiment: Minimum fungicide concentration (MFC); assay type: cell-based; conditions: ≥ 4 fungistatic or <4 fungicide
Experimental: as §3, §4

[8] = test system: Candida albicans CBS 562; experiment: Minimum fungicide concentration (MFC); assay type: cell-based; conditions: ≥ 4 fungistatic or <4 fungicide
Experimental: as §3, §4

[9] = test system: Candida strains (Candida albicans, C. tropicalis, and C. krusei); experiment: Antifungal evaluation (MIC/MFC), statements for all Candida strains; assay type: cell-based, Candida spp.
Experimental: The antifungal activity (Table 2) of the ten amides was assessed via the minimum inhibitory concentration (MIC) which was determined using the microdilution methods against three species of Candida strains (Candida albicans, C. tropicalis, and C. krusei).
as §3
(§5) MIC was determined by the microdilution technique, as previously described by the adapted Clinical and Laboratory Standards Institute (CLSI, 2002) method. The compounds were subjected to the microdilution technique in 96-well plates, with U bottom. The samples were dissolved with DMSO and sterile distilled water (up to 1.0 mL). Through serial dilutions, concentrations of the evaluated compounds ranging from 1000 μg/mL to 7.8 μg/mL. The culture sterility medium, the evaluated substances, and the microbial growth were carried out in parallel. The plates were closed and subjected to a temperature of 35 ± 2°C for 24 h. 1% TTC (2,3,5-triphenyl tetrazolium chloride, Sigma-Aldrich®, St. Louis, MO, EUA) was added to each well to confirm the presence of viable microorganisms. MIC was defined as the lowest concentration of the test substance that inhibits visible microbial growth.
as §4, with “units.” for “units. To determine whether the compounds had fungistatic (MFC/MIC ≥ 4) or fungicidal (MFC/MIC < 4) activity, the MFC/MIC ratio was calculated.”

[10] = test system: C. albicans; experiment: Ergosterol test (plasma membrane mechanism), microdilution; assay type: cell-based, Candida albicans; conditions: for MIC Without ergosterol: absence of ergosterol
Experimental: (2) Ergosterol Test. The test of the compounds was performed using the microdilution technique, as previously described, in the presence of exogenous ergosterol at 400 μg/mL. Nystatin was used as positive control. The plates were incubated at 35 ± 2°C, and readings were taken at 24 and 48 h.

[11] = test system: Candida albicans CBS 562; experiment: MIC by broth microdilution; assay type: cell-based; conditions: 24 h, N.A.: no activity
Experimental: as §3, §5

| Compound | MIC/MFC reason C. tropicalis CBS 94 [6] | MIC/MFC reason C. krusei CBS 573 [7] | MIC/MFC reason C. albicans CBS 562 [8] | IC50 ([2]; 72 h) | IC50 MRC5 ([2]; 72 h) | IC50 ([3]; 72 h) | IC50 HEPG2 ([3]; 72 h) | IC50 ([4]; 72 h) | IC50 ([5]; 72 h) | IC50 HCT116 ([5]; 72 h) | IC50 HL60 ([4]; 72 h) | also measured |
| --- | --- | --- | --- | --- | --- | --- | --- | --- | --- | --- | --- | --- |
| CC[C@H](C)C[C@H](C)CCCCCCCCC(=O)N[C@H]1C[C@@H](O)[C@@H](NCCN)NC(=O)[C@@H]2[C@@H](O)CCN2C(=O)[C@H]([C@H](O)CCN)NC(=O)[C@H]([C@H](O)[C@@H](O)c2ccc(O)cc2)NC(=O)[C@@H]2C[C@@H](O)CN2C(=O)[C@H]([C@@H](C)O)NC1=O [Caspofungin, reference compound] |  |  |  |  |  |  |  |  |  |  |  | MIC ([1]; CBS562, read-out: MIC With sorbitol): 1 µg/mL (≈ 0.915 µM); MIC ([1]; CBS562, read-out: MIC Without sorbitol): 0.015 µg/mL (≈ 0.0137 µM) |
| COc1cc(/C=C/C(=O)NCC(C)C)ccc1O [Compound 2, (E)-3-(4-hydroxy-3-methoxyphenyl)-N-isobutylacrylamide] |  |  |  |  |  |  |  |  |  |  |  | melting point: 75 to 81 °C; IC50 ([2]; Homo sapiens, MRC5, 72 h): > 25 µg/mL and > 100 µM; IC50 ([3]; Homo sapiens, HepG2, 72 h): > 25 µg/mL and > 100 µM; IC50 ([4]; Homo sapiens, HL-60, 72 h): > 25 µg/mL and > 100 µM; IC50 ([5]; Homo sapiens, HCT-116, 72 h): > 25 µg/mL and > 100 µM |
| COc1ccc(/C=C/C(=O)N2CCCC2)cc1O [Compound 3, (E)-3-(3-hydroxy-4-methoxyphenyl)-1-(pyrrolidin-1-yl)prop-2-en-1-one] |  |  |  |  |  |  |  |  |  |  |  | melting point: 158 to 162 °C; IC50 ([2]; Homo sapiens, MRC5, 72 h): > 25 µg/mL and > 95.7 µM; IC50 ([3]; Homo sapiens, HepG2, 72 h): > 25 µg/mL and > 95.7 µM; IC50 ([4]; Homo sapiens, HL-60, 72 h): > 25 µg/mL and > 95.7 µM; IC50 ([5]; Homo sapiens, HCT-116, 72 h): > 25 µg/mL and > 95.7 µM |
| COc1cccc2c1C(=O)c1c(O)c3c(c(O)c1C2=O)C[C@@](O)(C(=O)CO)C[C@@H]3O[C@H]1C[C@H](N)[C@H](O)[C@H](C)O1 [DOX, Doxorubicin, reference compound] |  |  |  |  |  |  |  |  |  |  |  | IC50 ([2]; Homo sapiens, MRC5, 72 h): 1 µg/mL and 1.84 µM; IC50 ([3]; Homo sapiens, HepG2, 72 h): 0.01 µg/mL and 20 nM; IC50 ([4]; Homo sapiens, HL-60, 72 h): 0.03 µg/mL and 60 nM; IC50 ([5]; Homo sapiens, HCT-116, 72 h): 0.02 µg/mL and 40 nM |
| C[C@@H]1[C@H](O)[C@@H](C)/C=C/C=C/CC/C=C/C=C/C=C/C=C/C(O[C@H]2O[C@H](C)[C@@H](O)[C@H](N)[C@@H]2O)CC2O[C@](O)(CC(O)C(O)CCC(O)CC(O)CC(O)CC(=O)O[C@H]1C)CC(O)C2C(=O)O (stereo partly drawn) [Nystatin, reference compound] | 1 | 1 | 1 |  |  |  |  |  |  |  |  | MFC ([9]; stated for all Candida strains): 4.3 µM (≈ 3.98 µg/mL); MIC ([9]; stated for all Candida strains): 4.3 µM (≈ 3.98 µg/mL); MIC Without ergosterol [10]: 3.75 µg/mL (≈ 4.05 µM); MIC With ergosterol ([10]; exogenous ergosterol at 400 μg/mL): 31.25 µg/mL (≈ 33.7 µM) |
| (E)-3-(3-hydroxy-4-methoxyphenyl)-N-(4-methoxybenzyl)acrylamide [Compound 8] | 1 | 1 | 1 | 53.2 µM | 16.69 (13.18–21.13) μg/mL | 64.7 µM | 20.27 (15.94–25.77) μg/mL | 70.3 µM | > 79.8 µM | >25 µg/mL |  | MIC ([9]; stated for all Candida strains): 1590 µM |
| (E)-3-(3-hydroxy-4-methoxyphenyl)-N-(4-methylbenzyl)acrylamide [Compound 7] | 1 | 1 |  | > 84.1 µM | >25 µg/mL | > 84.1 µM | >25 µg/mL | 53.1 µM | > 84.1 µM | >25 µg/mL |  | MIC C. albicans CBS 562 [11]: inactive |
| (E)-3-(3-hydroxy-4-methoxyphenyl)-N-phenylacrylamide [Compound 5] |  |  |  | > 88.2 µM | >25 µg/mL | > 88.2 µM | >25 µg/mL | 50.4 µM | > 88.2 µM | >25 µg/mL | 14.28 (9.40–21.70) μg/mL |  |
| (E)-N-(3,4-dimethoxybenzyl)-3-(3-hydroxy-4-methoxyphenyl)acrylamide [Compound 10] | 1 | 1 | 1 | > 78.9 µM | >25 µg/mL | > 78.9 µM | >25 µg/mL | 36.5 µM | > 78.9 µM | >25 µg/mL | 12.51 (7.41–18.12) μg/mL | MIC Without sorbitol ([1]; C. albicans CBS 562, absence of sorbitol): 31.25 µg/mL; MIC With sorbitol ([1]; C. albicans CBS 562, sorbitol 0.8 M): >1000 µg/mL; bioactivity category by MIC ([9]; Candida strains): good bioactivity (good bioactivity (MIC between 26 and 125 μg/mL)); MIC Without ergosterol [10]: 62.25 µg/mL |
| (E)-N-(4-chlorobenzyl)-3-(3-hydroxy-4-methoxyphenyl)acrylamide [Compound 9] | 1 | 1 |  | > 78.7 µM | >25 µg/mL | > 78.7 µM | >25 µg/mL | 49 µM | > 78.7 µM | >25 µg/mL | 15.58 (9.26–26.20) μg/mL | MIC C. albicans CBS 562 [11]: inactivity |
| (E)-N-benzyl-3-(3-hydroxy-4-methoxyphenyl)acrylamide [Compound 6] |  | 1 | 1 | 76.5 µM | 20.59 (16.22–26.13) μg/mL | 107 µM | 20.82 (17.45–28.23) μg/mL | 64.9 µM | 70.3 µM | 18.93 (13.48–26.57) μg/mL | 17.49 (14.24–421.48) μg/mL |  |
| (E)-N-cyclohexyl-3-(3-hydroxy-4-methoxyphenyl)acrylamide [Compound 4] |  |  |  | > 90.8 µM | >25 µg/mL | > 90.8 µM | >25 µg/mL | 68.4 µM | > 90.8 µM | >25 µg/mL | 18.84 (11.58–27.65) μg/mL |  |
